{"source": "patent US8747815B2", "about": "“Use of a cosmetic of pharmaceutical composition, comprising a lupeol-rich extract as an active ingredient for stimulating the synthesis of heat shock proteins” (Laboratoires Expanscience, priority 2003, dated 2014)", "key": {"[1]": {"system": "fibroblasts from a red or recent stretch mark (FVr)", "assay": "Isometric forces developed by fibroblasts in lattice, red stretch mark fibroblasts", "assay_type": "cell-based", "conditions": "FVr + lupeol 7 μg/ml, at 7 hours of culture; FVr alone 5547 V±808", "description": "(§1) Normal fibroblasts (FS), fibroblasts from a red or recent stretch mark (FVr) and fibroblasts from an older white stretch mark (FVb) were used in this study. Mechanical inhibition of the retraction of the collagen gel in which fibroblasts are embedded is reflected by the generation of a force, called “retraction force” or “isometric force”. The lattices develop in a culture dish that consists of 8 rectangular cells. Placed into each one are 2 flexible silicon slides, the lower parts of which consist of grids to which the lattice attaches when it polymerizes. The lattice develops between 2 slides so as to give a rectangular shape that is slightly shrunken at the center. This shape in conventional mechanics is referred to as a “diabolo” shape. These slides have, in their upper part, a strain gauge system made of gold deposited at their surface. Under the influence of the retraction force developed by the fibroblasts, the silicon slides distort. This is reflected by a variation in the value of electrical resistance of the stress gauge, measured by means of a Wheatstone bridge. This variation indicates the force developed within the lattice, measured in real time via a PC acquisition card and suitable software. The mixture for producing the lattices was poured into the rectangular cells of the culture dish. A gel formed in a few minutes at 37° C. […] The isometric forces were measured for 48 hours."}, "Normal fibroblasts (FS) [2]": {"system": "Normal fibroblasts (FS)", "assay": "Retraction of collagen lattice (free lattice), normal fibroblasts", "assay_type": "cell-based", "experimental": "(§2) Normal fibroblasts (FS), fibroblasts from a red or recent stretch mark (FVr) and fibroblasts from an older white stretch mark (FVb) were used in this study.\n(§3) The fibroblasts were cultured in the absence or in the presence of lupeol at a concentration of 7 μg/ml.\n(§4) The mechanism of retraction consists of the gathering up and rearranging of collagen by fibroblasts. The collagen polymerizes into fibrils to which the cells attach. The latter pull on the fibrils by virtue of their migratory movement, and thus reorganize the matrix. The diameter of the lattice is then decreased.\n(§5) The mixture for producing lattices was poured into Petri dishes 50 mm in diameter. A gel formed in a few minutes at 37° C. The lattices were cultured with or without lupeol. The degree of retraction was determined by measuring the diameters of the lattices."}, "Normal fibroblasts (FS) [3]": {"system": "Normal fibroblasts (FS)", "assay": "Isometric forces developed by fibroblasts in lattice, normal fibroblasts", "assay_type": "cell-based", "conditions": "FS + lupeol 7 μg/ml, at 7 hours of culture; FS alone 3583 V±1076", "description": "as §1"}, "human skin fibroblasts": {"system": "human skin fibroblasts", "assay": "Cytotoxicity of test concentrations on fibroblasts in culture", "assay_type": "cell-based"}, "[4]": {"system": "FS, FVr and FVb fibroblasts", "assay": "Demonstration of αSM actin (immunolabeling) in fibroblasts cultured in lattice", "assay_type": "cell-based", "conditions": "lupeol 7 μg/ml, lattices cultured for 5 days", "experimental": "Normal fibroblasts (FS), fibroblasts from a red or recent stretch mark (FVr) and fibroblasts from an older white stretch mark (FVb) were used in this study. The fibroblasts were cultured in the absence or in the presence of lupeol at a concentration of 7 μg/ml. Fibroblasts are large (100 μm) cells with a fusiform or star-shaped morphology. Their cytoplasm contains an assembly of protein filaments (intermediate filaments, microtubules, actin filaments) which constitute the framework, or cytoskeleton, thereof in close relationship with the plasma membrane. 10% of all cell proteins consist of actin, polymerized in the form of filaments and bundles, which are often described as stress fibers. Actin filaments contribute to the contractile activity of the fibroblast by generating isometric forces. Several types of actin exist, including polymerized fibrillar actin (F actin) and a smooth muscle actin (αSM actin). Lattices pulled over a nylon ring were cultured for 5 days in Petri dishes (Ø 50 mm). They were fixed with 3% paraformaldehyde in PBS for 20 min, and then rinsed with PBS. They were subsequently incubated with PBS+0.1% Triton X100 so as to permeabilize the membrane with respect to antibodies, and then with 3% H2O2 in order to eliminate endogenous peroxidases. […] was blocked with 3% BSA+10% sheep serum in PBS. […]"}, "gene encoding HSP47": {"system": "gene encoding HSP47", "assay": "cDNA microarray, expression of the gene encoding HSP47 in human skin fibroblasts", "assay_type": "cell-based", "conditions": "4.5 μg/ml lupeol", "experimental": "We used the “cDNA microarray” method for studying the effects of the product on the expression of the genes encoding structural and regulatory proteins of potential interest in skin physiology. Such an approach makes it possible to screen, in a single step, the effects of a product or of a treatment on gene expression in a given biological system and to obtain a signature of the effects of this treatment.\nThe product was applied to human skin fibroblasts cultured in MEM/M199 for 18 hours. The lupeol, in solution in ethanol was tested at the concentration of […], this concentration corresponds to a noncytotoxic dose.\nThe methodology used is that recommended by Clontech (Palo Alto, USA), and comprises: • a step consisting in extracting and purifying the total RNA; • a step consisting in purifying the messenger RNAs according to the AtlasPure protocol (Clontech); • labeling of the DNA probes with P^32 by reverse transcription; • purifying the label probes by exclusion column chromatography and verification of the quality and of the equivalence by liquid scintillation counting; and • hybridizing membranes (provided by the company Custom Atlas BIOAlternative) with the radiolabeled probes (68° C., overnight). Analysis of Results\nThe membranes were analyzed by direct quantification of the radioactivity of the spots using a Cyclone PhosphorImager (provided by the company Packard Instrument).\nThe results are expressed in relative units (RU, mean radioactivity of the points of the double spot corresponding to each gene, corrected for the background noise and for the differences in probe labeling intensity).\nThe results were analyzed case by case, label by label. Arbitrarily, the limit of significance was fixed at approximately +30% of the control for a stimulating effect, i.e. for an effect greater than 130%."}, "[5]": {"system": "FS, FVr and FVb fibroblasts", "assay": "Demonstration of F actin (phalloidin-FITC) in fibroblasts cultured in lattice", "assay_type": "cell-based", "conditions": "lupeol 7 μg/ml, lattices cultured for 5 days", "experimental": "Normal fibroblasts (FS), fibroblasts from a red or recent stretch mark (FVr) and fibroblasts from an older white stretch mark (FVb) were used in this study. The fibroblasts were cultured in the absence or in the presence of lupeol at a concentration of 7 μg/ml. Fibroblasts are large (100 μm) cells with a fusiform or star-shaped morphology. Their cytoplasm contains an assembly of protein filaments (intermediate filaments, microtubules, actin filaments) which constitute the framework, or cytoskeleton, thereof in close relationship with the plasma membrane. 10% of all cell proteins consist of actin, polymerized in the form of filaments and bundles, which are often described as stress fibers. Actin filaments contribute to the contractile activity of the fibroblast by generating isometric forces. Several types of actin exist, including polymerized fibrillar actin (F actin) and a smooth muscle actin (αSM actin). Lattices pulled over a nylon ring were cultured for 5 days in Petri dishes (Ø 50 mm). They were fixed with 3% paraformaldehyde in PBS for 20 min, and then rinsed with PBS. They were subsequently incubated with PBS+0.1% Triton X100 in order to permeabilize the membrane. […] They were mounted between slide and cover slip with a drop of Vectashield, and were then observed under a fluorescence microscope, under UV."}, "[6]": {"system": "fibroblasts from a red or recent stretch mark (FVr)", "assay": "Retraction of collagen lattice (free lattice), red stretch mark fibroblasts", "assay_type": "cell-based", "experimental": "as §2, §3, §4, §5"}, "[7]": {"system": "fibroblasts from an older white stretch mark (FVb)", "assay": "Isometric forces developed by fibroblasts in lattice, white stretch mark fibroblasts", "assay_type": "cell-based", "conditions": "FVb + lupeol 7 μg/ml, at 7 hours of culture; FVb alone 3999 V±881", "description": "as §1"}, "[8]": {"system": "fibroblasts from an older white stretch mark (FVb)", "assay": "Retraction of collagen lattice (free lattice), white stretch mark fibroblasts", "assay_type": "cell-based", "experimental": "as §2, §3, §4, §5"}, "HSP47 heat shock protein": {"system": "HSP47 heat shock protein", "assay": "Western blotting, expression of the HSP47 protein in fibroblasts in culture", "assay_type": "cell-based, human", "conditions": "dose of 20 μg/ml, incubation time of 48 h", "experimental": "This technique consists of: • separation of the various proteins on a polyacrylamide gel under denaturing conditions; • transfer of the proteins onto a specific membrane (PVDF membrane, sold by the company Biorad); • labeling of the protein of interest with a specific antibody (HSP47, Stressgen); • “colorimetric” visualization (Sigma Fast, BCPIP/NBT). Various nontoxic concentrations (5, 10 and 20 μg/ml) and several incubation times (24 and 48 hours) were tested."}}, "data": [{"smiles": "C=C(C)[C@@H]1CC[C@]2(C)CC[C@]3(C)[C@H](CC[C@@H]4[C@@]5(C)CC[C@H](O)C(C)(C)[C@@H]5CC[C@]43C)[C@@H]12", "note": "[lupeol, Lupeol]", "values": [{"measurement": "isometric forces", "setting": "[1]", "value": 2488, "unit": "V"}, {"measurement": "Gel diameter", "setting": "Normal fibroblasts (FS) [2]; FS + lupeol 7 μg/ml, FS alone 2.5", "value": 3}, {"measurement": "% decrease in retraction", "setting": "Normal fibroblasts (FS) [2]; FS, lupeol 7 μg/ml, at D2", "value": 20, "unit": "%"}, {"measurement": "isometric forces", "setting": "Normal fibroblasts (FS) [3]", "value": 1325, "unit": "V"}, {"measurement": "cytotoxicity of the tested concentration", "setting": "human skin fibroblasts; 4.5 μg, in solution in ethanol, human skin fibroblasts", "value": "noncytotoxic"}, {"measurement": "toxicity of the tested concentrations", "setting": "human skin fibroblasts; 5, 10 and 20 μg/ml, fibroblasts in culture", "value": "nontoxic"}, {"measurement": "labeling for αSM actin", "setting": "[4]", "value": "weak labeling for αSM actin"}, {"measurement": "HSP47 gene expression, % of the control", "setting": "gene encoding HSP47; 18 hours, human skin fibroblasts", "value": "129 % of the control"}, {"measurement": "HSP47 gene expression, relative units (RU)", "setting": "gene encoding HSP47; 18 hours, human skin fibroblasts, control cells 28.2 RU", "value": 36.4, "unit": "RU"}, {"measurement": "regulation of the expression of the gene encoding HSP47", "setting": "gene encoding HSP47; incubation for 18 hours", "value": "positive regulation"}, {"measurement": "F actin stress fibers and fibroblast morphology", "setting": "[5]", "value": "lose their F actin stress fibers and evolve toward a star-shaped form"}, {"measurement": "Gel diameter", "setting": "[6]; FVr + lupeol 7 μg/ml, FVr alone 3", "value": 3.6}, {"measurement": "% decrease in retraction", "setting": "[6]; FVr, lupeol 7 μg/ml, at D2", "value": 20, "unit": "%"}, {"measurement": "isometric forces", "setting": "[7]", "value": 1365, "unit": "V"}, {"measurement": "Gel diameter", "setting": "[8]; FVb + lupeol 7 μg/ml, FVb alone 2.9", "value": 3.2}, {"measurement": "% decrease in retraction", "setting": "[8]; FVb, lupeol 7 μg/ml, at D2", "value": 10, "unit": "%"}, {"measurement": "HSP47 production (Western blotting)", "setting": "HSP47 heat shock protein", "value": "stimulation of HSP47 production"}]}]}
